#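 Where inhibition never reached the appropriate level, the endpoint shown equals the highest concentration tested. Otherwise, values were interpolated linearly from a five-concentration, 48-hour dose response in 96-well plates. GI50 is the concentration that inhibits growth by half. TGI: total growth inhibition.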
# Experiments:
# Assay in all cases: NCI-60 cell line screen, 48 h
# CAKI-1 renal = tested on: CAKI-1 renal
# A549 NSCLC = tested on: A549 NSCLC
# KM12 colon = tested on: KM12 colon
# MDA-MB-231 breast = tested on: MDA-MB-231 breast
# SNB-19 CNS = tested on: SNB-19 CNS
# OVCAR-4 ovarian = tested on: OVCAR-4 ovarian
# SF-295 CNS = tested on: SF-295 CNS
# HCT-116 colon = tested on: HCT-116 colon
# MOLT-4 leukemia = tested on: MOLT-4 leukemia
# T-47D breast = tested on: T-47D breast
# CCRF-CEM leukemia = tested on: CCRF-CEM leukemia
# SK-MEL-2 melanoma = tested on: SK-MEL-2 melanoma
# NCI-H522 lung = tested on: NCI-H522 lung
# SF-539 CNS = tested on: SF-539 CNS
# COLO 205 colon = tested on: COLO 205 colon
# ACHN renal = tested on: ACHN renal
# DU-145 prostate = tested on: DU-145 prostate
# MDA-MB-435 = tested on: MDA-MB-435
# HOP-62 NSCLC = tested on: HOP-62 NSCLC
# UACC-62 melanoma = tested on: UACC-62 melanoma
# M14 melanoma = tested on: M14 melanoma
# OVCAR-3 ovarian = tested on: OVCAR-3 ovarian
# OVCAR-5 ovarian = tested on: OVCAR-5 ovarian
# EKVX NSCLC = tested on: EKVX NSCLC
# NCI-H23 lung = tested on: NCI-H23 lung
# MALME-3M melanoma = tested on: MALME-3M melanoma
# OVCAR-8 ovarian = tested on: OVCAR-8 ovarian
# UO-31 renal = tested on: UO-31 renal
# BT-549 breast = tested on: BT-549 breast
# U251 CNS = tested on: U251 CNS
# HL-60(TB) leukemia = tested on: HL-60(TB) leukemia
# LOX IMVI melanoma = tested on: LOX IMVI melanoma
# SK-OV-3 ovarian = tested on: SK-OV-3 ovarian
# A498 renal = tested on: A498 renal
# UACC-257 melanoma = tested on: UACC-257 melanoma
# HCT-15 colon = tested on: HCT-15 colon
# PC-3 prostate = tested on: PC-3 prostate
# NCI-H226 lung = tested on: NCI-H226 lung
# NCI/ADR-RES ovarian = tested on: NCI/ADR-RES ovarian
# MCF7 breast = tested on: MCF7 breast
# RXF 393 renal = tested on: RXF 393 renal
# TK-10 renal = tested on: TK-10 renal
# SK-MEL-28 melanoma = tested on: SK-MEL-28 melanoma
# HCC-2998 colon = tested on: HCC-2998 colon
# SW-620 colon = tested on: SW-620 colon
# RPMI-8226 leukemia = tested on: RPMI-8226 leukemia
# 786-0 renal = tested on: 786-0 renal
# SN12C renal = tested on: SN12C renal
# HT29 colon = tested on: HT29 colon
# SK-MEL-5 melanoma = tested on: SK-MEL-5 melanoma
# SF-268 CNS = tested on: SF-268 CNS
# K-562 leukemia = tested on: K-562 leukemia
# HS 578T breast = tested on: HS 578T breast
# SR leukemia = tested on: SR leukemia
# SNB-75 CNS = tested on: SNB-75 CNS
# NCI-H460 lung = tested on: NCI-H460 lung
# IGROV1 ovarian = tested on: IGROV1 ovarian
smiles,measurement,setting,value
N#Cc1cc(-c2cc3ccccc3o2)oc1N,GI50,CAKI-1 renal,1.65 µM
same,TGI,CAKI-1 renal,5.48 µM
same,GI50,A549 NSCLC,3.7 µM
same,TGI,A549 NSCLC,> 100 µM
same,GI50,KM12 colon,3.58 µM
same,TGI,KM12 colon,11.8 µM
same,GI50,MDA-MB-231 breast,1.89 µM
same,TGI,MDA-MB-231 breast,4.76 µM
same,GI50,SNB-19 CNS,4.07 µM
same,TGI,SNB-19 CNS,31.7 µM
same,GI50,OVCAR-4 ovarian,3.23 µM
same,TGI,OVCAR-4 ovarian,40.6 µM
same,GI50,SF-295 CNS,2.22 µM
same,TGI,SF-295 CNS,4.97 µM
same,GI50,HCT-116 colon,3.65 µM
same,TGI,HCT-116 colon,12.2 µM
same,GI50,MOLT-4 leukemia,1.94 µM
same,TGI,MOLT-4 leukemia,6.64 µM
same,GI50,T-47D breast,3.89 µM
same,TGI,T-47D breast,59 µM
same,GI50,CCRF-CEM leukemia,3.72 µM
same,TGI,CCRF-CEM leukemia,21.2 µM
same,GI50,SK-MEL-2 melanoma,1.29 µM
same,TGI,SK-MEL-2 melanoma,4.49 µM
same,GI50,NCI-H522 lung,2.41 µM
same,TGI,NCI-H522 lung,12.6 µM
same,GI50,SF-539 CNS,3.89 µM
same,TGI,SF-539 CNS,14.5 µM
same,GI50,COLO 205 colon,2.06 µM
same,TGI,COLO 205 colon,4.74 µM
same,GI50,ACHN renal,3 µM
same,TGI,ACHN renal,11.1 µM
same,GI50,DU-145 prostate,4.4 µM
same,TGI,DU-145 prostate,28.9 µM
same,GI50,MDA-MB-435,3.69 µM
same,TGI,MDA-MB-435,16.9 µM
same,GI50,HOP-62 NSCLC,3.18 µM
same,TGI,HOP-62 NSCLC,11.3 µM
same,GI50,UACC-62 melanoma,3.79 µM
same,TGI,UACC-62 melanoma,17.2 µM
same,GI50,M14 melanoma,6.11 µM
same,TGI,M14 melanoma,22 µM
same,GI50,OVCAR-3 ovarian,1.98 µM
same,TGI,OVCAR-3 ovarian,6.38 µM
same,GI50,OVCAR-5 ovarian,4.34 µM
same,TGI,OVCAR-5 ovarian,30.6 µM
same,GI50,EKVX NSCLC,2.83 µM
same,TGI,EKVX NSCLC,14.1 µM
same,GI50,NCI-H23 lung,3.9 µM
same,TGI,NCI-H23 lung,22.8 µM
same,GI50,MALME-3M melanoma,2.45 µM
same,TGI,MALME-3M melanoma,6.98 µM
same,GI50,OVCAR-8 ovarian,4.32 µM
same,TGI,OVCAR-8 ovarian,> 100 µM
same,GI50,UO-31 renal,3.72 µM
same,TGI,UO-31 renal,18.2 µM
same,GI50,BT-549 breast,3.58 µM
same,TGI,BT-549 breast,14 µM
same,GI50,U251 CNS,3.15 µM
same,TGI,U251 CNS,14.7 µM
same,GI50,HL-60(TB) leukemia,3.85 µM
same,TGI,HL-60(TB) leukemia,> 100 µM
same,GI50,LOX IMVI melanoma,2.87 µM
same,TGI,LOX IMVI melanoma,12.5 µM
same,GI50,SK-OV-3 ovarian,2.38 µM
same,TGI,SK-OV-3 ovarian,7.15 µM
same,GI50,A498 renal,1.76 µM
same,TGI,A498 renal,4.68 µM
same,GI50,UACC-257 melanoma,3.8 µM
same,TGI,UACC-257 melanoma,74.1 µM
same,GI50,HCT-15 colon,3.35 µM
same,TGI,HCT-15 colon,13 µM
same,GI50,PC-3 prostate,2.73 µM
same,TGI,PC-3 prostate,6.85 µM
same,GI50,NCI-H226 lung,3.12 µM
same,TGI,NCI-H226 lung,13.4 µM
same,GI50,NCI/ADR-RES ovarian,3.71 µM
same,TGI,NCI/ADR-RES ovarian,> 100 µM
same,GI50,MCF7 breast,2.66 µM
same,TGI,MCF7 breast,15.3 µM
same,GI50,RXF 393 renal,3.96 µM
same,TGI,RXF 393 renal,13.5 µM
same,GI50,TK-10 renal,6.61 µM
same,TGI,TK-10 renal,34.8 µM
same,GI50,SK-MEL-28 melanoma,6.54 µM
same,TGI,SK-MEL-28 melanoma,19.7 µM
same,GI50,HCC-2998 colon,4.92 µM
same,TGI,HCC-2998 colon,18.9 µM
same,GI50,SW-620 colon,3.98 µM
same,TGI,SW-620 colon,14.8 µM
same,GI50,RPMI-8226 leukemia,1.46 µM
same,TGI,RPMI-8226 leukemia,5.04 µM
same,GI50,786-0 renal,4.74 µM
same,TGI,786-0 renal,22.5 µM
same,GI50,SN12C renal,3 µM
same,TGI,SN12C renal,11.8 µM
same,GI50,HT29 colon,3.35 µM
same,TGI,HT29 colon,11.3 µM
same,GI50,SK-MEL-5 melanoma,1.52 µM
same,TGI,SK-MEL-5 melanoma,3.78 µM
same,GI50,SF-268 CNS,4.73 µM
same,TGI,SF-268 CNS,20.1 µM
same,GI50,K-562 leukemia,3.58 µM
same,TGI,K-562 leukemia,> 100 µM
same,GI50,HS 578T breast,0.401 µM
same,TGI,HS 578T breast,3.41 µM
same,GI50,SR leukemia,0.764 µM
same,TGI,SR leukemia,3.1 µM
same,GI50,SNB-75 CNS,3.61 µM
same,TGI,SNB-75 CNS,15.5 µM
same,GI50,NCI-H460 lung,3.03 µM
same,TGI,NCI-H460 lung,10.6 µM
same,GI50,IGROV1 ovarian,1.76 µM
same,TGI,IGROV1 ovarian,6.35 µM

# Reference: PubChem BioAssay (NCI)
